Measurements taken from ChEMBL document CHEMBL2424650, “Optimization of anti-proliferative activity using a screening approach with a series of bis-heterocyclic G-quadruplex ligands” (Bioorg Med Chem Lett, 2013).

Tests used:
[1] = Binding affinity to duplex DNA (unknown origin) assessed as change in melting temperature at 5 uM by FRET assay
[2] = Binding affinity to duplex DNA (unknown origin) assessed as change in melting temperature at 1 uM by FRET assay
[3] = Binding affinity to 21-mer Hsp90A promoter quadruplex (unknown origin) assessed as change in melting temperature at 5 uM by FRET assay
[4] = Binding affinity to 21-mer Hsp90A promoter quadruplex (unknown origin) assessed as change in melting temperature at 1 uM by FRET assay
[5] = Binding affinity to c-kit2 G4-quadruplex DNA (unknown origin) assessed as change in melting temperature at 5 uM by FRET assay
[6] = Binding affinity to c-kit2 G4-quadruplex DNA (unknown origin) assessed as change in melting temperature at 1 uM by FRET assay
Homo sapiens [7] = species on record: Homo sapiens; assay: Binding affinity to human F21T G4-telomeric quadruplex assessed as change in melting temperature at 5 uM by FRET assay
Homo sapiens [8] = species on record: Homo sapiens; assay: Binding affinity to human F21T G4-telomeric quadruplex assessed as change in melting temperature at 1 uM by FRET assay
[9] = Antiproliferative activity against human […] cells after 96 hrs by SRB assay; assay type: cell-based; settings: WI-38, 96 h
A549 = assay: Antiproliferative activity against human A549 cells after 96 hrs by SRB assay; assay type: functional, cell-based; settings: A549, 96 h
[10] = Antiproliferative activity against human RCC4 cells after 96 hrs by SRB assay; assay type: functional, cell-based; settings: RCC4, 96 h
786-0 = assay: Antiproliferative activity against human 786-0 cells after 96 hrs by SRB assay; assay type: functional, cell-based; settings: 786-0, 96 h
MCF7 = assay: Antiproliferative activity against human MCF7 cells after 96 hrs by SRB assay; assay type: functional, cell-based; settings: MCF7, 96 h

| Compound | ΔTm [1] [°C] | ΔTm [2] [°C] | ΔTm [3] [°C] | ΔTm [4] [°C] | ΔTm [5] [°C] | ΔTm [6] [°C] | ΔTm (Homo sapiens [7]) [°C] | ΔTm (Homo sapiens [8]) [°C] | IC50 (A549) [µM] | IC50 (786-0) [µM] | IC50 (MCF7) [µM] | IC50 [9] [µM] | IC50 [10] [µM] |
| --- | --- | --- | --- | --- | --- | --- | --- | --- | --- | --- | --- | --- | --- |
| c1cc(-c2cnc(-c3cccc(OCCN4CCCC4)c3)o2)cc(-c2cnc(-c3cccc(OCCN4CCCC4)c3)o2)c1 | 5.3 | 0 | 27.7 | 3.4 | 20.3 | < 2 | 25.9 | < 2 | 1 | 0.7 | 1.2 | 1 | 1.3 |
| CN1CCN(CCCNc2cccc(-c3ncc(-c4cccc(-c5cnc(-c6cccc(NCCCN7CCN(C)CC7)c6)o5)c4)o3)c2)CC1 | 0 | 0 | 25.6 | < 2 | 18.3 | < 2 | 20.1 | < 2 | 1.2 | 0.9 | 1 | 1.1 | 1.2 |
| CN1CCN(CCCNc2cccc(-n3cc(-c4ccc5ccc(-c6cn(-c7cccc(NCCCN8CCN(C)CC8)c7)nn6)cc5c4)nn3)c2)CC1 | 0 | 0 | < 10 | 5.7 | < 10 | 2.4 | < 10 | 2.9 | > 25 | 8.7 | > 25 | 15.3 | 8.4 |
| CN1CCN(CCCNc2cccc(-c3ncc(-c4ccc5ccc(-c6cnc(-c7cccc(NCCCN8CCN(C)CC8)c7)o6)cc5c4)o3)c2)CC1 | 0 | 0 | < 10 | 2.5 | < 10 | < 2 | < 10 | < 2 | 1.6 | 1.2 | 1.9 | 3.1 | 2.1 |

Second part, led by results:

| ΔTm [1] [°C] | ΔTm [2] [°C] | ΔTm [3] [°C] | ΔTm [4] [°C] | ΔTm [5] [°C] | ΔTm [6] [°C] | ΔTm (Homo sapiens [7]) [°C] | ΔTm (Homo sapiens [8]) [°C] | IC50 (A549) [µM] | IC50 (786-0) [µM] | IC50 (MCF7) [µM] | Compound | IC50 [9] [µM] | IC50 [10] [µM] |
| --- | --- | --- | --- | --- | --- | --- | --- | --- | --- | --- | --- | --- | --- |
| 0 | 0 | < 10 | < 2 | < 10 | < 2 | < 10 | < 2 | > 25 | > 25 | > 25 | CN1CCN(CCCNc2ccc(-n3cc(-c4ccc5ccc(-c6cn(-c7ccc(NCCCN8CCN(C)CC8)cc7)nn6)cc5c4)nn3)cc2)CC1 | > 25 | > 25 |
| 0 | 0 | 19.5 | < 2 | 13.6 | < 2 | 13.3 | < 2 | 2.5 | 1.3 | 3.1 | CCN(CC)CCNc1cccc(-c2ncc(-c3cccc(-c4cnc(-c5cccc(NCCN(CC)CC)c5)o4)c3)o2)c1 | 2.8 | 1.1 |
|  | 2 |  | 5 |  | < 2 |  | < 2 | 1.2 | 2.3 | 1.4 | c1cc(-c2cnc(-c3cccc(CN4CCCCC4)c3)o2)cc(-c2cnc(-c3cccc(CN4CCCCC4)c3)o2)c1 | 4.4 | 1.9 |
| 6.8 | 0 |  | < 2 | 17 | < 2 | 24.7 | < 2 | 0.6 | 1.1 | 2.1 | c1cc(-c2cnc(-c3cccc(NCCN4CCCC4)c3)o2)cc(-c2cnc(-c3cccc(NCCN4CCCC4)c3)o2)c1 | 1 | 1.1 |
